Source: US8242087B2, “Phosphate modified nucleosides useful as substrates for polymerases and as antiviral agents” (priority 2007, dated 2012)

Key:
[1] = biological target: T1, HIV reverse transcriptase (HIV RT) (Human immunodeficiency virus type 1 group M subtype B, UniProt P03366); assay: Single nucleotide incorporation by HIV RT, gel-based, P1/T1 (Examples 2-3); assay type: biochemical, HIV-1; settings: single nucleotide incorporation, FIG. 4
T1 construct: HIV RT polymerase was purchased from GE Healthcare; purchased GE Healthcare (Amersham Bioscience)
Procedure: A typical single nucleotide incorporation and primer extension assays using HIV RT polymerase was carried out similar to one described in the literature. HIV RT polymerase was purchased from GE Healthcare and was supplied as either 12 or 30 U/μL stock solution. The final concentration of HIV RT in a reaction mixture was 0.03-0.003 U/μL. A primer/template duplex mixture was prepared by combining appropriate amounts of a 5′-^33P-labeled primer (P1) and a template in 1:2 molar ratio to provide a 4× solution with 0.5 μM primer concentration. The polymerase reactions were carried out in a 5×RT buffer containing 250 mM TRIS.HCL, 250 mM KCl, 50 mM MgCl2, 2.5 mM spermidine, 50 mM DTT, pH 8.3. For the single nucleotide incorporation assay, a P1/T1 primer-template pair was used whereas the primer extension study was performed with P1/T3 and P1/T5 primer-template pairs.
Briefly, a mixture containing 5 μL of the 4× primer/DNA duplex solution and 5 μL of 4× polymerase solution was pre-incubated at 37° C. for 2 minutes to ensure formation a DNA polymerase/DNA duplex complex. Simultaneously, 2× solutions of dNTP to provide final concentrations of 100 μM, 200 μM, 500 μM and 1 mM were also pre-incubated at 37° C. for 2 minutes as well. The polymerase reaction in a total volume of 20 μL was initiated by addition of 10 μL of the 2× dNTP solution to the DNA polymerase/DNA duplex mixture. The reactions were run at 37° C. and aliquots (2.5 μL) were removed at specified time points and mixed with 10 μL of a quenching buffer containing 80% formamide, 2 mM EDTA, 1×TBE. Quenched reactions were analyzed by loading 2 μL of a reaction sample onto a 20% denaturing polyacrylamide:gel (19:1 acrylamide:bisacrylamide, 7M urea, 0.4 mm×30 cm×40 cm) made in 1×TBE buffer (90 mM Tris-borate, 2 mM EDTA, pH 8.3). The gel was pre-equilibrated for 2 hours before loading and the reactions were run along with a tracking dye marker containing bromophenol blue (BB) and xylene cyanol (XC) until the BB dye had run ⅔ of the total gel length. For visualization, gels were scanned using a Cyclone Phosphoroimager.

[2] = biological target: T2, HIV reverse transcriptase (Human immunodeficiency virus type 1 group M subtype B, UniProt P03366); assay: Steady-state kinetic assay of Asp-dNMP incorporation by HIV RT (Example 4); assay type: biochemical, HIV-1; settings: 37° C.; P1-T2, P1-T4 or P2T4
T2 construct: performed for the enzyme HIV reverse transcriptase (GE Healthcare, 30 U/4 stock solution); purchased GE Healthcare
Procedure: To determine the kinetic parameters of the incorporation of Asp-dGMP (9), Asp-dTMP (10), Asp-dCMP (11) or dGTP, dTTP, dCTP, a steady-state kinetic assay was carried out. The reaction mixture was started by adding HIV reverse transcriptase to P1-T2, P1-T4 or P2T4 complex, buffer and Asp-dGMP, Asp-dTMP, Asp-dCMP or dGTP, dTTP, dCTP. The final mixture (20 μL) contained 0.015 or 0.0075 U/μL HIV reverse transcriptase, buffer, 125 nM primer-template complex and various concentrations of Asp-dNMP or dNTP. A concentration range of 0.01-1 mM was used for Asp-dNPM and a concentration range of 0.1-10 μM was used for dNTP. Reactions were incubated at 37° C. Reaction times were between 1 and 120 minutes. The kinetic constants Vmax and KM were determined from a Michaëlis-Menten plot, using GraphPad Prism version 3.02.
(§1) All polymerase reactions (3 μL) were quenched by the addition of 10 μL of loading buffer (90% formamide, 0.05% bromophenol blue, 0.05% xylene cyanol and 50 mM EDTA). Samples were heated at 70° C. for 5 minutes prior to analysis by electrophoresis for 2-3 hours at 2000 V on a 0.4 mm 20% denaturing gel in the presence of a 100 mM Tris-borate, 2.5 mM EDTA buffer, pH 8.3. Products were visualized by phosphor imaging. The amount of radioactivity in the bands corresponding to the products of enzymatic reactions was determined by using the Optiquant image analysis software (Perkin Elmer).

[3] = biological target: T2, HIV reverse transcriptase; assay: Gel-based single-nucleotide-incorporation and control assays with HIV RT (Example 4); assay type: biochemical, HIV-1; settings: for conversion to a n+1 strand: 60 min, 500 μM nucleotide concentration, P1T2 (9), P1T4 (10), P2T4 (11); for control experiment with a mismatch sequence: A against A P1T4 (12), G against A P1T4 (9), T against C P1T2 (10), C against T P1T1 (11); for incorporation with blunt ended duplex: primer P1, template A
Procedure: End-labeled primers were annealed to their template by combining primer and templates in a molar ratio of 1:2 and heating the mixture to 70° C. for 10 minutes, followed by slow cooling to room temperature over a period of 2.5 hours. For the incorporation of L-Asp-dGMP (9), L-Asp-dTMP (10), L-Asp-dCMP (11), and N-Me-Asp-dAMP (12) (see FIG. 13), the primer P1 was annealed to templates T1, T2, T4 or A and P2 was annealed to T4. A series of 20 μL reactions was performed for the enzyme HIV reverse transcriptase (GE Healthcare, 30 U/4 stock solution). The final mixture contained 125 nM primer-template complex, RT buffer (250 mM TrisHCl, 250 mM KCl, 50 mM MgCl2, 2.5 mM spermidine, 50 mM DTT, pH 8.3), 0.03 U/μL HIV RT and different amino acid phosphoramidates building blocks concentrations. In the control reaction with the natural nucleotide, 10 μM or 50 μM dGTP, dTTP, dATP or dCTP were used. The mixture was incubated at 37° C. […] and aliquots were quenched after 5, 10, 20, 30, 60 and 120 minutes respectively.
as §1

[4] = biological target: T2, HIV reverse transcriptase; assay: as above; assay type: biochemical, HIV-1; settings: P1/T2, compound 9 alone
[5] = biological target: T3, HIV-1 Reverse Transcriptase (Human immunodeficiency virus type 1 group M subtype B, UniProt P03366); assay: Single incorporation into P1T1 by HIV-1 Reverse Transcriptase (Examples 6, 7, 9); assay type: biochemical; settings: 2 hours, 1 mM concentration
T3 construct: performed with the enzyme HIV-1 RT (Ambion, 10 U/μL stock solution); purchased Ambion
Procedure: HIV-1 Reverse Transcriptase serves, in the HIV-1 viral replication process, as a catalyst and uses deoxynucleotides as substrates. This polymerase is error-prone and thus has a high mutation rate. Here, we evaluated the capacity to incorporate a deoxyadenosine nucleoside into the primer-template complex P1T1 using HIV-1 RT, and some of the above described illustrative compounds of the invention, carrying different leaving groups, as substrates. The initial screening was carried out using a template with an overhang of one thymidine nucleotide followed by three non-pyrimidine bases (Table 1). Incorporation efficiency was analysed by the polyacrylamide gel-based single nucleotide incorporation assay.
End-labeled primer was annealed to its template by combining primer and template in a molar ratio of 1:2 and heating the mixture to 70° C. for 10 minutes followed by slow cooling to room temperature over a period of 1.5 hour. For the incorporation of 1, 2, 3, 4, 5 and 6, a series of 20 μL-batch reactions was performed with the enzyme HIV-1 RT (Ambion, 10 U/μL stock solution, specific activity 8.095 U/mg, concentration 1.2 mg/mL). The final mixture contained 125 nM primer template complex, RT buffer (250 mM Tris.HCl, 250 mM KCl, 50 mM MgCl2, 2.5 mM spermidine, 50 mM dithiothreitol (DTT); pH 8.3), 0.025 U/μL HIV-1 RT, and different concentrations of phosphoramidate or phosphodiester building blocks (1 mM, 500 μM, 200 μM and 100 μM respectively). In the case of the aromatic phosphate-modified nucleosides 23 and 24, the range of concentrations was limited to 1 mM. In the control reaction with the natural nucleotide, a 10 μM dATP concentration was used. The mixture was incubated at 37° C. and 2.5 μL aliquots were quenched after 5, 10, 20, 30, 60 and 120 minutes.

HIV RT = biological target: T4, HIV RT (Human immunodeficiency virus type 1 group M subtype B, UniProt P03366); assay: Steady state kinetics of single nucleotide incorporation by HIV RT (P1/T1); assay type: biochemical, HIV-1; settings: P1/T1, 37° C.
T4 construct: HIV RT polymerase was purchased from GE Healthcare; purchased GE Healthcare (Amersham Bioscience)
Procedure: The steady steate kinetics of a single nucleotide incorporation of an amino acid phosphoramidate (AA-dAMP) and of a natural nucleoside triphosphate (dATP) was determined by the gel-based polymerase assay. In all the experiments, the template T1 and the primer P1 were used (Table 1). The primer and template in 1:2 molar ratio were hybridized in a buffer containing 20 mM TRIS.HCl, 10 mM KCl, 2 mM MgSO4, 0.1% Triton X-100, pH 8.8 and used in an amount to provide 125 nM concentration of the primer in each 12 μL reaction. The range of concentrations for amino acid phosphoramidates was optimized according to a Km value for the incorporation of an individual nucleotide. In the case of HIV RT (Amersham Bioscience (GE Healthcare), 30 U/μL), reaction mixtures containing the enzyme in concentration to attain 5-20% conversion and appropriate substrate concentration (nucleoside phosphoramidate or natural dNTP) were incubated at 37° C. and run for 8-10 different time intervals. Kinetic analysis of single nucleotide incorporation by Therminator DNA polymerase (NEB, 2 U/μL) was performed similarly except the incubations and polymerase reactions, which were carried out at 70° C. To prevent solvent condensation/evaporation, the reaction mixtures were topped with mineral oil. The reactions were quenched by addition of the buffer containing 80% formamide, 2 mM EDTA, 1×TBE buffer. The analysis of polymerase reactions was performed by polyacrylamide gel electrophoresis (20% (19:1 mono:bis), 7M urea, 30 cm×40 cm×0.4 mm). The relative band intensities were measured using OptiQuant software. The rates of incorporation (V) were calculated based on the percentage of the extension production (n+1 band). The kinetic parameters (Vmax and Km) were determined by plotting V (pmol/min·U) versus substrate concentration and fitting the data point to a rectangular hyperbola using GraphPad Prism software.

| SMILES | Km [2] | Vmax [2] | conversion to a n+1 strand [3] | control experiment with a mismatch sequence [3] | incorporation with blunt ended duplex [3] | also measured |
| --- | --- | --- | --- | --- | --- | --- |
| CC(NP(=O)(O)OC[C@H]1O[C@@H](n2cnc3c(N)ncnc32)C[C@@H]1O)C(=O)O (stereo partly drawn) [Compound 4, 2′-deoxy-adenosine-5′-alanyl-phosphoramidate] | – | – | – | – | – | fold reduction in primer extension [1]: 7 fold |
| Nc1nc2c(ncn2[C@H]2C[C@H](O)[C@@H](COP(=O)(O)N[C@@H](CC(=O)O)C(=O)O)O2)c(=O)[nH]1 [Compound 9, 2′-Deoxyguanosine-5′-aspartyl phosphoramidate] | 169 ± 27.9 µM | 2.143 ± 0.13 pmolmin^−1U | 92% | primer elongation was not observed | none of these compounds incorporated at all | n+1 conversion (incorporation) ([4]; 4 hours (same as at 2 hours)): 95%; misincorporation ([4]; four hours): no misincorporation was observed |
| Cc1cn([C@H]2C[C@H](O)[C@@H](COP(=O)(O)N[C@@H](CC(=O)O)C(=O)O)O2)c(=O)[nH]c1=O [Compound 10, 2′-Deoxythymidine-5′-aspartyl phosphoramidate] | 288 ± 61.7 µM | 2.33 ± 0.22 pmolmin^−1U | 95% | primer elongation was not observed | none of these compounds incorporated at all | – |
| Nc1ccn([C@H]2C[C@H](O)[C@@H](COP(=O)(O)N[C@@H](CC(=O)O)C(=O)O)O2)c(=O)n1 [Compound 11, 2′-Deoxycytidine-5′-aspartyl phosphoramidate] | 131 ± 19.8 µM | 0.59 ± 0.04 pmolmin^−1U | 82% | primer elongation was not observed | none of these compounds incorporated at all | – |
| CN(C(CC(=O)O)C(=O)O)P(=O)(O)OC[C@H]1O[C@@H](n2cnc3c(N)ncnc32)C[C@@H]1O (stereo partly drawn) [Compound 12, 2′-Deoxyadenosine-5′-N-methylaspartyl phosphoramidate] | – | – | – | misincorporated against adenine | – | base-pairing selectivity of incorporation ([3]; P1/T1): without base-pairing selectivity; substrate quality for HIV-RT ([3]; P1/T1): good substrate |
| Nc1ncnc2c1ncn2[C@H]1C[C@H](O)[C@@H](COP(=O)(O)Oc2cc(C(=O)O)cc(C(=O)O)c2)O1 [Compound 22, 2′-deoxyadenosine-5′-(5-hydroxy-isophthalic acid) phosphodiester] | – | – | – | – | – | conversion to an n+1 strand [5]: 90-92% |
| Nc1ncnc2c1ncn2[C@H]1C[C@H](O)[C@@H](COP(=O)(O)OP(=O)(O)OP(=O)(O)O)O1 [dATP, reference compound] | – | – | – | – | – | Km (HIV RT): 0.46 ± 0.15 µM; Vmax (HIV RT): 8.39 ± 0.82 pmol/min · U |
| Nc1ccn([C@H]2C[C@H](O)[C@@H](COP(=O)(O)OP(=O)(O)OP(=O)(O)O)O2)c(=O)n1 [dCTP, reference compound] | 3.74 ± 0.95 µM | 5.62 ± 0.80 pmolmin^−1U | – | – | – | – |
| Nc1nc2c(ncn2[C@H]2C[C@H](O)[C@@H](COP(=O)(O)OP(=O)(O)OP(=O)(O)O)O2)c(=O)[nH]1 [dGTP, reference compound] | 0.54 ± 1.55 µM | 28.81 ± 1.55 pmolmin^−1U | – | – | – | – |
| Cc1cn([C@H]2C[C@H](O)[C@@H](COP(=O)(O)OP(=O)(O)OP(=O)(O)O)O2)c(=O)[nH]c1=O [dTTP, reference compound] | 0.53 ± 0.07 µM | 30.82 ± 1.44 pmolmin^−1U | – | – | – | – |
